Here are results for three molecules from US4448775A, “3-Carbamoyloxymethylcephem derivatives, and antibacterial drugs containing same” (Eisai Co., Ltd., priority 1981, dated 1984).

In general, LD50 refers to the dose at which mortality reaches 50%. A word on the MIC: it is the smallest concentration in the dilution series that meets the test's criterion for growth inhibition. A lower MIC goes with a more susceptible organism.

Molecules are shown by their SMILES. Converted amounts (≈) assume the structure as drawn.

Data set [1] is described as follows: Acute toxicity, LD50 (mouse, oral administration). The settings on record: in vivo. The text has this:
With reference to the compounds of Example Nos. 2, 3 and 4, all their acute toxicity values [LD50 (mouse, oral administration)] amount to above 4 g/kg.

The next data set relates to Proteus vulgaris E-18. The data set is described as follows: Minimal inhibitory concentration, standard agar dilution method of the Japan Society of Chemotherapy. Type of data set: cell-based. To be noted: E18, Proteus vulgaris E-18, lactamase-producing bacterium. The protocol:
(§1) Minimal inhibitory concentration (MIC, μg/ml) of certain compounds obtained in the above examples was determined in accordance with the standard agar dilution method of the Japan Society of Chemotherapy.
Background: Agar dilution tests growth on a series of plates holding different concentrations.

Data set [2] relates to Pseudomonas aeruginosa EP-174. The data set is described as above. Type of data set: cell-based. The settings on record: EP174. The protocol:
as §1

For a further data set, the system named is Proteus morganii EP-14. The data set is described as above. Format: cell-based. The settings on record: Morganella morganii, EP14. The protocol: as §1
In data set [3] the test system is Klebsiella pneumoniae EK-6. The data set is described as above. Format: cell-based. To be noted: EK6. The protocol:
as §1

For data set [4], the system named is Staphylococcus aureus 209-P. The data set is described as above. Format: cell-based. As to the method: as §1
The subject of data set [5] is Serratia marcescens ES-75. Described as above. Format: cell-based. The settings on record: ES75. As to the method:
as §1

The test system of another data set is Escherichia coli NIHJ. Described as above. Type of data set: cell-based. As to the method: as §1

In data set [1], `NC(=O)OCC1=C(C(=O)O)N2C(=O)[C@@H](NC(=O)[C@H](NC(=O)c3coc4cc(O)c(O)cc4c3=O)c3ccc(O)cc3)[C@H]2SC1` [Example 2, 7β-[D-2-(6,7-Dihydroxychromon-3-carboxamido)-2-(4-hydroxyphenyl)acetamido]-3-carbamoyloxymethyl-3-cephem-4-carboxylic acid] showed a 50% lethal dose (LD50) greater than 4000 mg/kg. For the same molecule, the MIC in the data set on Proteus vulgaris E-18 is greater than 100 µg/mL; in data set [2] it was 0.4 µg/mL (≈ 0.638 µM); in the data set on Proteus morganii EP-14, 25 µg/mL (≈ 39.9 µM); in data set [3], no more than 0.05 µg/mL; in data set [4] it was 3.13 µg/mL (≈ 5 µM); in data set [5], 0.8 µg/mL (≈ 1.28 µM). In the data set with Escherichia coli NIHJ, it took 0.8 µg/mL (≈ 1.28 µM) to inhibit growth (MIC).

Turning to `CO[C@@]1(NC(=O)[C@H](NC(=O)c2coc3cc(O)c(O)cc3c2=O)c2ccc(O)cc2)C(=O)N2C(C(=O)O)=C(COC(=O)NC(=O)C(Cl)(Cl)Cl)CS[C@@H]21` [Example 3, 7β-[D-2-(6,7-Dihydroxychromon-3-carboxamido)-2-(4-hydroxyphenyl)acetamido]-7α-methoxy-3-trichloroacetylcarbamoyloxymethyl-3-cephem-4-carboxylic acid], the LD50 in data set [1] was greater than 4000 mg/kg. For the same molecule, the MIC against Proteus vulgaris E-18 is 3.13 µg/mL (≈ 3.9 µM); in data set [2], 3.13 µg/mL (≈ 3.9 µM); against Proteus morganii EP-14, 12.5 µg/mL (≈ 15.6 µM); in data set [3] it was no more than 0.05 µg/mL; in data set [4], 6.25 µg/mL (≈ 7.79 µM); in data set [5], 1.56 µg/mL (≈ 1.95 µM). Besides, the MIC in the data set on Escherichia coli NIHJ came out at 3.13 µg/mL (≈ 3.9 µM).

The molecule `CO[C@@]1(NC(=O)[C@H](NC(=O)c2coc3cc(O)c(O)cc3c2=O)c2ccc(O)cc2)C(=O)N2C(C(=O)O)=C(COC(N)=O)CS[C@@H]21` [Example 4, 7β-[D-2-(6,7-Dihydroxychromon-3-carboxamido)-2-(4-hydroxyphenyl)acetamido]-7α-methoxy-3-carbamoyloxymethyl-3-cephem-4-carboxylic acid] registered an LD50 in data set [1] greater than 4000 mg/kg. In addition, the minimal inhibitory concentration (MIC) is 0.8 µg/mL (≈ 1.22 µM) against Proteus vulgaris E-18; 1.56 µg/mL (≈ 2.38 µM) in data set [2]; 6.25 µg/mL (≈ 9.52 µM) in the data set on Proteus morganii EP-14; no more than 0.05 µg/mL in data set [3]; 6.25 µg/mL (≈ 9.52 µM) in data set [4]; 0.4 µg/mL (≈ 0.609 µM) in data set [5]. The molecule further registered an MIC in the data set with Escherichia coli NIHJ of 1.56 µg/mL (≈ 2.38 µM).
